From patent publication US20240327334A1, “Covalent Inhibitors As Antiviral Agents” (Enanta Pharmaceuticals, Inc., priority 2022, published 2024) come the findings set out here.

Assay [1] concerns the target SARS-CoV-2 Papain-like (PLpro) protease (Severe acute respiratory syndrome coronavirus 2, UniProt P0DTD1). Nature of the assay: SARS-CoV-2 Papain-like (PLpro) protease biochemical enzyme inhibition assay (ubiquitin-fluorophore substrate, Ub-R110). Conditions: Ub-R110 substrate; run in duplicate; read-out: PLpro IC50.
Assay [2] has as its system SARS-CoV-2 replicon. Nature of the assay: microbe, parasite or virus in culture. Type of assay: cell-based. Particulars: Severe acute respiratory syndrome coronavirus 2, Huh-7.

As for `N#CCNC(=O)C(=O)NCc1ccccc1C(=O)NC1(c2cc(-c3cnn(C(F)F)c3)cc3ccccc23)CC1` [Example 285], the IC50 in assay [1] was less than 0.1 µM. The compound further returned an EC50 in assay [2] of less than 1 µM.

With `N#CCNC(=O)C(=O)NCc1ccccc1C(=O)NC1(c2cc(-c3cnn(CC(F)F)c3)cc3ccccc23)CC1` [Example 286], the IC50 in assay [1] is less than 0.1 µM. Moreover, the EC50 in assay [2] is less than 1 µM.

For the compound `CC(C)(O)c1ncc(-c2cc(C3(NC(=O)c4ccccc4CNC(=O)C(=O)NCC#N)CC3)c3ccccc3c2)s1` [Example 287], the half-inhibitory concentration (IC50) in assay [1] was less than 0.1 µM. This compound registered an EC50 in assay [2] of less than 1 µM.

As for `Cc1n[nH]c(C)c1-c1cc(C2(NC(=O)c3ccccc3CNC(=O)C(=O)NCC#N)CC2)c2ccccc2c1` [Example 288], the IC50 in assay [1] was less than 0.1 µM. The 50% effective concentration (EC50) in assay [2] was 1 to 10 µM.

In the case of `Cn1ccc(-c2cc(C3(NC(=O)c4ccccc4CNC(=O)C(=O)NCC#N)CC3)c3ccccc3c2)n1` [Example 290], in assay [1], the IC50 is less than 0.1 µM. Besides, the 50% effective concentration (EC50) in assay [2] is less than 1 µM.

With `N#CCNC(=O)C(=O)NCc1ccccc1C(=O)NC1(c2cc(-c3ccn(C(F)F)n3)cc3ccccc23)CC1` [Example 293], the half-inhibitory concentration (IC50) in assay [1] was less than 0.1 µM. The EC50 in assay [2] was less than 1 µM.

`N#CCNC(=O)C(=O)NCc1ccccc1C(=O)NC1(c2cc(C#N)cc3ccccc23)CC1` [Example 294]: the IC50 in assay [1] was less than 0.1 µM. The compound also came in with an EC50 in assay [2] of less than 1 µM.

With `Cc1nn(C)c(C)c1-c1cc(F)cc(C2(NC(=O)c3ccccc3CNC(=O)C(=O)NCC#Cc3nccs3)CC2)c1F` [Example 295], in assay [1], the IC50 was less than 0.1 µM. This compound returned an EC50 in assay [2] of less than 1 µM.

With `O=C(NCC#Cc1nccs1)C(=O)NCc1ccccc1C(=O)NC1(c2cc(-c3ccn(C(F)F)n3)cc(F)c2F)CC1` [Example 296], the IC50 in assay [1] is less than 0.1 µM. The compound further yielded an EC50 in assay [2] of less than 1 µM.

As for `Cc1nn(C)c(C)c1-c1cc(F)c(F)c(C2(NC(=O)c3ccccc3CNC(=O)C(=O)NCC#Cc3nccs3)CC2)c1` [Example 297], the IC50 in assay [1] is less than 0.1 µM. The same compound returned an EC50 in assay [2] of less than 1 µM.

For `Cc1nn(C)c(C)c1-c1cc(C2(NC(=O)c3ccccc3CNC(=O)C(=O)N[C@@H](C)C#Cc3nccs3)CC2)cc2ccccc12` [Example 298], the 50% inhibitory concentration (IC50) in assay [1] was less than 0.1 µM. Further, the EC50 in assay [2] is less than 1 µM.

For `Cc1nn(C)c(C)c1-c1cc(C2(NC(=O)c3ccccc3CNC(=O)C(=O)NCC#Cc3nccs3)CC2)cc2ccccc12` [Example 299], in assay [1], the IC50 is less than 0.1 µM. In addition, the EC50 in assay [2] was less than 1 µM.

For the compound `Cc1nn(C)c(C)c1-c1cc(C2(NC(=O)c3ccccc3CNC(=O)C(=O)NCC#Cc3nccs3)CC2)c2ccccc2c1` [Example 300], the IC50 in assay [1] is less than 0.1 µM. The compound also came in with an EC50 in assay [2] of less than 1 µM.

As to `N#Cc1cc(-c2cnn(C3CC3)c2)c(F)c(C2(NC(=O)c3ccccc3CNC(=O)C(=O)NCC#Cc3nccs3)CC2)c1` [Example 301], in assay [1], the IC50 is less than 0.1 µM. This compound also displayed an EC50 in assay [2] of less than 1 µM.

As for `C#CCNC(=O)C(=O)NCc1ccccc1C(=O)NC1(c2cc(-c3cnn(C4CC4)c3)cc(Cl)c2F)CC1` [Example 302], the IC50 in assay [1] is less than 0.1 µM. Moreover, the EC50 in assay [2] is less than 1 µM.

In the case of `C#CCNC(=O)C(=O)NCc1ccccc1C(=O)NC1(c2cc(-c3cccs3)cc(Cl)c2F)CC1` [Example 303], the IC50 in assay [1] is less than 0.1 µM. Also, the EC50 in assay [2] is less than 1 µM.

For `N#CCNC(=O)C(=O)NCc1ccccc1C(=O)NC1(c2cc(-c3cccs3)cc(Cl)c2F)CC1` [Example 304], the IC50 in assay [1] was less than 0.1 µM. Besides, the EC50 in assay [2] fell in the range of 1 to 10 µM.

Consider `O=C(NCC#Cc1nccs1)C(=O)NCc1ccccc1C(=O)NC1(c2cc(-c3ccn(C4CC4)n3)cc(F)c2F)CC1` [Example 305], for which the concentration for half-maximal inhibition (IC50) in assay [1] was less than 0.1 µM. The EC50 in assay [2] was less than 1 µM.

Take `N#CCNC(=O)C(=O)NCc1ccccc1C(=O)NC1(c2cc(-c3ccn(C4CC4)n3)cc(F)c2F)CC1` [Example 306]: the IC50 in assay [1] is less than 0.1 µM. In addition, the EC50 in assay [2] was less than 1 µM.

`N#CCNC(=O)C(=O)NCc1ccccc1C(=O)NC1(c2cc(-c3cnn(C4CC4)c3)c3ccccc3c2)CC1` [Example 307]: in assay [1], the IC50 was less than 0.1 µM. For the same compound, the EC50 in assay [2] lay within 1 to 10 µM.

As to `N#CCNC(=O)C(=O)NCc1ccccc1C(=O)NC1(c2cccc3c(C#N)cccc23)CC1` [Example 308], the IC50 in assay [1] is less than 0.1 µM. The EC50 in assay [2] was less than 1 µM.

For the compound `N#CCNC(=O)C(=O)NCc1ccccc1C(=O)NC1(c2cccc3c(Br)cccc23)CC1` [Example 310], the IC50 in assay [1] is less than 0.1 µM. The EC50 in assay [2] is less than 1 µM.

Turning to `C#CCNC(=O)C(=O)NCc1ccccc1C(=O)NC1(c2cc(F)cc(-c3cnn(C4CC4)c3)c2F)CC1` [Example 311], the IC50 in assay [1] is less than 0.1 µM. In assay [2], this compound gave an EC50 of less than 1 µM.

As for `N#CCNC(=O)C(=O)NCc1ccccc1C(=O)NC1(c2cc(F)cc(-c3cnn(C4CC4)c3)c2F)CC1` [Example 312], the IC50 in assay [1] is less than 0.1 µM. The compound further yielded a concentration giving a half-maximal response (EC50) in assay [2] of 1 to 10 µM.

Consider `O=C(NCC#Cc1nccs1)C(=O)NCc1ccccc1C(=O)NC1(c2cc(F)cc(-c3cnn(C4CC4)c3)c2F)CC1` [Example 313], for which the IC50 in assay [1] was less than 0.1 µM. The compound further came in with an EC50 in assay [2] of less than 1 µM.

Take `CN1C[C@H](F)C[C@H]1COc1ccc(CNC(=O)C(=O)NCC#N)c(C(=O)NC2(c3cccc4ccccc34)CC2)c1` [Example 318]: the IC50 in assay [1] is less than 0.1 µM. The compound also came in with an EC50 in assay [2] of less than 1 µM.

Turning to `CC1(O)CN(c2cc(C3(NC(=O)c4ccccc4CNC(=O)C(=O)NCC#N)CC3)c3ccccc3c2)C1` [Example 319], the IC50 in assay [1] is less than 0.1 µM. In assay [2], this compound yielded an EC50 of 1 to 10 µM.

Turning to `N#CCNC(=O)C(=O)NCc1ccc(OCCO)cc1C(=O)NC1(c2cccc3ccccc23)CC1` [Example 320], in assay [1], the IC50 was less than 0.1 µM. Also, the EC50 in assay [2] is less than 1 µM.

Regarding `NC(=O)C(=O)NCc1ccccc1C(=O)NC1(c2cc(-c3cnn(C4CC4)c3)cc3ccccc23)CC1` [Example 321], the IC50 in assay [1] was less than 0.1 µM. The compound also gave an EC50 in assay [2] of 1 to 10 µM.

On to `CN1C[C@H](F)CC1COc1ccc(CNC(=O)C(=O)NCC#N)c(C(=O)NC2(c3cc(-c4cnn(C5CC5)c4)cc4ccccc34)CC2)c1` (some centres unmarked) [Example 322], for which the IC50 in assay [1] is less than 0.1 µM. The EC50 in assay [2] is less than 1 µM.

With `C[C@@H](C#Cc1nccs1)NC(=O)C(=O)NCc1ccccc1C(=O)NC1(c2ccc3nn(CC(F)(F)F)cc3c2)CC1` [Example 323], the IC50 in assay [1] is less than 0.1 µM. Further, in assay [2], the EC50 was less than 1 µM.

In the case of `COCC1CCCN1c1cc(C2(NC(=O)c3ccccc3CNC(=O)C(=O)NCC#N)CC2)c2ccccc2c1` (centres unmarked) [Example 324], in assay [1], the IC50 is less than 0.1 µM. The EC50 in assay [2] fell in the range of 1 to 10 µM.

Turning to `CN1CC(COc2ccc(CNC(=O)C(=O)NCC#N)c(C(=O)NC3(c4cccc5ccccc45)CC3)c2)C1` [Example 326], the IC50 in assay [1] was less than 0.1 µM. The EC50 in assay [2] is 1 to 10 µM.

Take `C[C@H](NC(=O)c1ccccc1CNC(=O)C(=O)NCC#N)c1cc(C(F)(F)F)nc2ccccc12` [Example 327]: the IC50 in assay [1] was less than 0.1 µM. Besides, the EC50 in assay [2] lay within 1 to 10 µM.

For the compound `CC(=O)N1CCN(c2cc(C3(NC(=O)c4ccccc4CNC(=O)C(=O)NCC#N)CC3)c3ccccc3c2)CC1` [Example 328], in assay [1], the IC50 is less than 0.1 µM. The EC50 in assay [2] was 1 to 10 µM.

As for `N#CN1CCC(F)(C(=O)NCc2ccccc2C(=O)NC2(c3cc(Br)cc4ccccc34)CC2)C1` (centres unmarked) [Example 329], the IC50 in assay [1] was less than 0.1 µM. This compound returned an EC50 in assay [2] of less than 1 µM.

With `N#CCNC(=O)C(=O)NCc1ccccc1C(=O)NC1(c2cc(N3CC(O)C3)cc3ccccc23)CC1` [Example 330], the IC50 in assay [1] was less than 0.1 µM. Besides, the EC50 in assay [2] was 1 to 10 µM.
